Patent US11911406B2, “PH-responsive polymer-drug conjugates for enhanced antibacterial efficacy” (priority 2020, dated 2024)

What was measured:
E. coli ATCC 25922 [1] = assay: Live/Dead bacterial staining assay (AO/EB); format: cell-based; settings: 0.5 h and 3 h
Protocol: Live/Dead bacterial staining assay. Exponentially growing bacteria (E. coli ATCC 25922) were collected by centrifugation at 8000 rpm for 5 min, washed with saline and diluted to OD 600 value of 0.5. The bacterial suspensions were incubated with different treatments at 37° C. for 0.5 h and 3 h, and then washed with saline and stained by acridine orange (10 μg/mL) and ethidium bromide (EB, […]) solution for 15 min. Afterward, the bacteria were collected via centrifugation, washed with saline for 2 times, resuspended in 70% glycerol and spread on glass slides. The live/dead bacteria were observed by a confocal laser scanning microscope (CLSM).

[2] = system: E. coli, MRSA and P. aeruginosa; assay: Scanning electron microscopy (SEM) observation; format: cell-based; settings: pH 6.0, 3 h
Protocol: Scanning electron microscopy (SEM) observation. Bacteria suspensions were prepared as above and treated with PDC at different pH for 3 h, washed with saline and fixed with 2.5% glutaraldehyde at 4° C. overnight. The samples were washed with Milli-Q water and dehydrated with a series of graded ethanol solutions (50%, 75%, 90%, 100%, each for 5 min). After drying for 1 day, the samples were coated with platinum and observed by SEM (Zeiss/LEO 1530).

MRSA biofilm = assay: Biofilm inhibition assay (crystal violet); format: cell-based, S. aureus
Protocol: (§1) Biofilm inhibition assays. Exponentially growing bacteria were inoculated into 96 well plates (1×10^4 cell/well) containing MHB broth with 2% (v/w) glucose, incubated under stationary conditions at 37° C. for one day. After biofilm formation, the media was discarded and the plates were washed with PBS to remove the planktonic bacteria. Fresh NMB broth containing serially diluted free streptomycin or PDC were added to the plates and incubated at 37° C. for another 24 h. The media in each well was then removed, and the plates were washed carefully with PBS for 1 time. The biofilm in each well was fixed with 95% ethanol for 15 min and stained with 0.1% crystal violet for 15 min. After washing with Milli-Q water for three times, 33% v/v acetic acid (100 μL/well) was added to solubilize the crystal violet staining. OD 560 in each well was read to determine the biofilm formation. The biofilm formed as described above was also stained with acridine orange and Cy5 labeled PDC, and monitored by CLSM to observe the PDC penetration.

E. coli ATCC 25922 [3] = assay: Mouse thigh infection model; format: in vivo, ICR mice; settings: single i.v. injection 1 h after infection, equivalent of 5 mg streptomycin/kg, thighs at 24 h
Protocol: Mouse thigh infection model. ICR mice (female, 22-24 g, Charles River) were intramuscularly inoculated with E. coli ATCC 25922 (2×10^8 CFU/mL in saline, 0.05 mL bacteria suspension per thigh) on their both thighs and randomly divided into 4 groups (n=3). The mice were treated with PBS, free streptomycin (5 mg/kg), […] through i.v. injection 1 h after the infection. 24 h after the inoculation, animals were euthanized by CO2 asphyxiation and thigh muscles were collected and homogenized in 5 mL cold PBS with glass homogenizer. The homogenates in the amount of 0.1 mL were used for serial tenfold dilutions and spread onto nutrient agar plate for CFU determination.

P. aeruginosa biofilm = assay: Biofilm inhibition assay (crystal violet); format: cell-based; settings: 256 μg/mL streptomycin
Protocol: as §1

E. coli biofilm = assay: Biofilm inhibition assay (crystal violet); format: cell-based; settings: streptomycin concentration 16 μg/mL
Protocol: as §1

[4] = system: HEK 293 human embryonic kidney cells; assay: Cell viability test (MTT cytotoxicity); format: cell-based; settings: 48 h, row marked pH 7.4
Protocol: Cell viability test. Cytotoxicity of different components was tested through MTT assays. HEK 293 human embryonic kidney cells were seeded onto a 96-well plate (1×10^4 cells/well) and cultured overnight. The cells were then treated with various polymers or PDCs with serial dilutions for 48 h and their viability was measured by a standard MTT assay. Data were collected by monitoring the difference between the absorbance at 560 nm and 650 nm using a GloMax-Multi Microplate Multimode Reader (Promega, Wis., USA).

[5] = system: S. aureus (MRSA ATCC33591); assay: MIC, broth microdilution; format: cell-based
Protocol: (§2) Bacterial strains. S. aureus Newman was kindly provided by Prof Douglas Weibel; E. coli ATCC25922, S. aureus ATCC 33591 and P. aeruginosa ATCC 27853 were kindly donated by Prof. David Andes. E. coli DH5a was purchased from Thermo Fisher. The bacteria above were grown in Mueller Hinton Broth (MHB) media (Criterion, Santa Maria, Calif., USA). M. smegmatis mc^2155 strain was kindly donated by Prof. Adel M. Talaat, and was grown in Middlebrook 7H9 broth (HiMedia, West Chester, Pa., USA).
(§3) Minimal inhibitory concentration (MIC) measurements. The MIC of the different treatments on various bacteria strains was determined using the broth microdilution method. Briefly, 100 μL of the respective broth media containing serial twofold dilutions of each compound was placed into a 96-well tissue culture plate. Each bacterial strain was taken from an exponentially growing culture and diluted to 5×10^6 CFU/mL. 10 μL of such microbial suspension was inoculated in each well of the plate, resulting in a final bacteria concentration of approximately 5×10^5 CFU/mL. The bacteria were cultured at 37° C. for 24 h and their growth were observed by reading the optical density (OD) at 600 nm. The MIC was determined as the treatment concentration at which no microbial growth was observed. Broth containing microbial cells alone was used as a positive control and broth without bacteria inoculation was used as a negative control. Each test was carried out in 3 replicates.

S. aureus (Newman) = assay: MIC, broth microdilution; format: cell-based
Protocol: as §2, §3

M. smegmatis (MC^2 155) = assay: MIC, broth microdilution; format: cell-based
Protocol: as §2, §3

E. coli (ATCC 25922) = assay: MIC, broth microdilution; format: cell-based
Protocol: as §2, §3

[6] = system: P. aeruginosa (ATCC 27853); assay: MIC, broth microdilution; format: cell-based
Protocol: as §2, §3

E. coli (DH5 alpha) = assay: MIC, broth microdilution; format: cell-based
Protocol: as §2, §3

For “Hex-Cys-Cys-DET-strep-DMA [Neutralized PDC]”, the “bactericidal effect / EB staining, in words” value (E. coli ATCC 25922 [1]) was “much delayed and pH-dependent bactericidal effect”, the “bacterial membrane morphology (SEM), in words” value [2] was “severe membrane disruption and deformation” and the biofilm removed (MRSA biofilm; equivalent of 32 μg/mL streptomycin, acidic conditions) was “More than 90%”. The biofilm eliminated (MRSA biofilm; streptomycin concentration 16 μg/mL) was 75%, the “reductions in CFU” value (E. coli ATCC 25922 [3]) was “more than 4 orders” and the “biofilm reduced / removed” value (P. aeruginosa biofilm) was 96%. For the same substance, the biofilm eliminated (E. coli biofilm) was 75%, the “HEK293 IC50” value [4] was >2000 µg/mL and the “MIC S. aureus (MRSA ATCC33591)” value ([5]; pH 6.0) was 40 µg/mL. For the same substance, the “MIC S. aureus (MRSA ATCC33591)” value ([5]; pH 7.4) was 160 µg/mL, the “MIC S. aureus (Newman)” value (S. aureus (Newman); pH 6.0) was 20 µg/mL and the “MIC S. aureus (Newman)” value (S. aureus (Newman); pH 7.4) was 80 µg/mL. The “MIC M. smegmatis (MC^2 155)” value (M. smegmatis (MC^2 155); pH 6.0) was 2.5 µg/mL, the “MIC M. smegmatis (MC^2 155)” value (M. smegmatis (MC^2 155); pH 7.4) was 20 µg/mL and the “MIC E. coli (ATCC 25922)” value (E. coli (ATCC 25922); pH 6.0) was 20 µg/mL. The “MIC E. coli (ATCC 25922)” value (E. coli (ATCC 25922); pH 7.4) was 80 µg/mL, the “MIC P. aeruginosa (ATCC 27853)” value ([6]; pH 6.0) was 40 µg/mL and the “MIC P. aeruginosa (ATCC 27853)” value ([6]; pH 7.4) was 160 µg/mL. For the same substance, the “MIC E. coli (DH5 alpha)” value (E. coli (DH5 alpha); pH 6.0) was 20 µg/mL and the “MIC E. coli (DH5 alpha)” value (E. coli (DH5 alpha); pH 7.4) was 80 µg/mL.
